Activity calls are given as the source filed them. Cut-off read from the data, not from the text of the source, for most assays here: actives have a measured EC50 and inactives only a lower limit.
How the values were obtained:
[1] = Luminescence Cell-Based Dose Retest to Confirm Inhibitors of Cancer Stem Cells. [Related pubchem assays (depositor defined):AID2717, AID2721]; format: functional; conditions: Homo sapiens
[2] = molecular target: T1, Protein skinhead-1 (Caenorhabditis elegans, UniProt P34707); format: functional
T1 sequence (P34707 whole entry): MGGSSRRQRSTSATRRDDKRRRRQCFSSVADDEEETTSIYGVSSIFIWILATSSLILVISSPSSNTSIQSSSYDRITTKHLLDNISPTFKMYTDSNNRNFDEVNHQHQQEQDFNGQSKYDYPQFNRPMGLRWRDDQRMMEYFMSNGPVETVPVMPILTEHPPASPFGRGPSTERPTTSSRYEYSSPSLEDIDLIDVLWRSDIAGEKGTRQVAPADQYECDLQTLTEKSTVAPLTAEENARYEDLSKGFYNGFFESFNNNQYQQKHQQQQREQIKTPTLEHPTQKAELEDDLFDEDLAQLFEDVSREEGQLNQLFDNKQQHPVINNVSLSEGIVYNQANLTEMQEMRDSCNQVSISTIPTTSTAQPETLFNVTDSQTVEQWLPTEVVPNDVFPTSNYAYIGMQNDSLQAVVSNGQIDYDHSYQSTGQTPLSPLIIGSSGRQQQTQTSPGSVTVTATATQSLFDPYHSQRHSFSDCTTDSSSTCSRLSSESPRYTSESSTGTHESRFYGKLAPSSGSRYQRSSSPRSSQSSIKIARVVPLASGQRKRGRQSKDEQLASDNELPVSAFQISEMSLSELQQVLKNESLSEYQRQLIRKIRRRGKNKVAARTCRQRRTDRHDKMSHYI

[3] = molecular target: Cytochrome P450 2D6 (Homo sapiens, UniProt P10635);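 note: CYP2D6 member of a cytochrome P450 panel assay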
[4] = molecular target: T2, Heat shock factor protein 1 (Mus musculus, UniProt P38532); assay: HSF1 potentiators in luciferase reporter cells, confirmation, cell-based, NIH3T3, luminescence, dose retest (AID 435004); format: functional;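 note: stress induced by proteasome inhibitor MG132 added 30 min after compound; luciferase reporter driven by HSF1 response element in NIH3T3 cells; actives raise luminescence as potentiators of the MG132 stress response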
T2 sequence (P38532 whole entry): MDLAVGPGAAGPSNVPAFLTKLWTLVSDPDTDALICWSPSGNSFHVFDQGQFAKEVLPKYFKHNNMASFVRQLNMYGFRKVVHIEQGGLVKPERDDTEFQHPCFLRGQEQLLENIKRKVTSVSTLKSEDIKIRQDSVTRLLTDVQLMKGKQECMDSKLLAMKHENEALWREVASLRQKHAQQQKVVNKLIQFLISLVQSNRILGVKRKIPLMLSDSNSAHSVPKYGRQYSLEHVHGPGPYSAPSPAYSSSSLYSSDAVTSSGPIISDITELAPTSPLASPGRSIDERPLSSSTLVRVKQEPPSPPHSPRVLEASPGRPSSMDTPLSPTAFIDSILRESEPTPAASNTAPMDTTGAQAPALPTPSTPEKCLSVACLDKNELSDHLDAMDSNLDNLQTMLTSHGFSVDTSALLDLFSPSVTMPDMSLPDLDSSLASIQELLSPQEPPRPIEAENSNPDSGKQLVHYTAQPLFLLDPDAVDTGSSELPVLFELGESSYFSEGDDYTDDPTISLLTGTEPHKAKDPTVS

[5] = molecular target: Paired box protein Pax-8 (Homo sapiens, UniProt Q06710); assay: inhibitors of PAX8-driven TPO luciferase reporter, dose response, RMG-I cells, cherry-pick (AID 687027); format: functional, cell-based;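 note: luciferase reporter driven by Pax8 target thyroperoxidase promoter measured by SteadyGlo luminescence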
[6] = Luminescence Cell-Based Dose Confirmation HTS to Identify Activators of 5'UTR Stem-Loop Driven Alpha-Synuclein mRNA Translation in H4 Neuroglioblastoma Cells. [Related pubchem assays: 1829 (Project Summary), 1814 (Primary HTS)]; format: functional
[7] = Luminescence Cell-Based Dose Response HTS to Identify Activators of Luciferase Translation or Activity in H4 […] Cells. [Related pubchem assays: 1829 (Project Summary), 1814 (Primary HTS)]; format: functional
[8] = test system: H4; assay: Luminescence Cell-Based Dose Response HTS to Identify Activators of 5'UTR Stem-Loop Driven Prion Protein mRNA Translation in H4 Neuroglioblastoma Cells. [Related pubchem assays: 1829 (Project Summary), 1814 (Primary HTS)]; format: functional; conditions: Homo sapiens
[9] = HEp-2 cell cytotoxicity, dose response, cytotoxicity control for RSV inhibitor project, HTS (AID 2410); format: functional; conditions: human respiratory syncytial virus
[10] = test system: Streptococcus sp. 'group A'; assay: growth inhibition of control SK(-) GAS strain, dose response, counter-screen for streptokinase expression inhibitor project, luminescence, kanamycin, BacTiterGlo, confirmation (AID 1900); format: functional, organism-based
[11] = molecular target: T3, Streptokinase A (Streptococcus pyogenes serotype M1, UniProt P10520); assay: S. pyogenes streptokinase expression inhibitors, potency, dose response, plasminogen activation absorbance, OD405 (AID 1914); format: functional, Streptococcus pyogenes M1 GAS;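 note: secreted streptokinase activity via plasminogen activation per viability signal from cell pellet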
T3 sequence (P10520 whole entry): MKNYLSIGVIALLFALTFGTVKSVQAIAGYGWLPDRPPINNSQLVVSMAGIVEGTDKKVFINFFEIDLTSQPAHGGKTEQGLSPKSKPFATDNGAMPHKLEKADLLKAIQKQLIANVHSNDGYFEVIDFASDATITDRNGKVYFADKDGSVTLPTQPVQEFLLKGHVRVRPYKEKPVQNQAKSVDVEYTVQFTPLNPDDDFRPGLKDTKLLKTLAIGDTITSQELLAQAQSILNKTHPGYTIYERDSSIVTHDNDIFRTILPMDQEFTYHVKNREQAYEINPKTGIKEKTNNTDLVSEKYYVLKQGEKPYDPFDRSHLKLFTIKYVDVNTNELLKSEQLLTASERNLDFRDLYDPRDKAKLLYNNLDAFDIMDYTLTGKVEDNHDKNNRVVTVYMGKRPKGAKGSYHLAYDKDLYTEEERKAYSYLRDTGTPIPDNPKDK

[12] = test system: Streptococcus; assay: Group A Streptococcus viability loss, dose response, counter-screen for streptokinase expression inhibitor project, luminescence, BacTiterGlo (AID 1915); format: functional, organism-based;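 note: potency for reduction of bacterial viability or growth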
[13] = molecular target: Cytochrome P450 3A4 (Homo sapiens, UniProt P08684);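 note: CYP3A4 tested as one member of a cytochrome P450 panel screen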
[14] = molecular target: Cytochrome P450 2C9 (Homo sapiens, UniProt P11712)
[15] = molecular target: T2, Heat shock factor protein 1; assay: inhibition of MG132-induced HSE-luciferase signal, confirmation, cell-based, NIH3T3, luminescence, dose retest (AID 2382); format: functional;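 note: NIH3T3 fibroblasts with HSF1-driven luciferase reporter stressed by proteasome inhibitor MG132; luminescence from HSF1-driven luciferase expression after 8 hours of MG132 stress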

Cytochrome P450 2D6, sequence (P10635 whole entry): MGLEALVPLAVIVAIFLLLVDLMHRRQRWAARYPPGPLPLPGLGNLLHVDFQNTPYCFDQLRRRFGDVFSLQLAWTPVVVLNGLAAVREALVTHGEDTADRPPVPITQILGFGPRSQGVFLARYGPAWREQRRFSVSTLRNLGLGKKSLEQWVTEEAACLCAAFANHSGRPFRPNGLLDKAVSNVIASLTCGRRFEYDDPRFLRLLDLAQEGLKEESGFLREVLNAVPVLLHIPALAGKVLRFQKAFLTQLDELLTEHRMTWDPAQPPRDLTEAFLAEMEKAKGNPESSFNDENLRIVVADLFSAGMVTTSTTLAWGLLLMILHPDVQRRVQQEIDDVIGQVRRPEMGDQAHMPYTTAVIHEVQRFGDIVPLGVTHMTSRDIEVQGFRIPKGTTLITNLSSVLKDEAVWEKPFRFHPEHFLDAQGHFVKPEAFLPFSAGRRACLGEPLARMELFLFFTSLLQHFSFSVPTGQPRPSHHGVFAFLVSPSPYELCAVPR
Cytochrome P450 3A4, sequence (P08684 whole entry): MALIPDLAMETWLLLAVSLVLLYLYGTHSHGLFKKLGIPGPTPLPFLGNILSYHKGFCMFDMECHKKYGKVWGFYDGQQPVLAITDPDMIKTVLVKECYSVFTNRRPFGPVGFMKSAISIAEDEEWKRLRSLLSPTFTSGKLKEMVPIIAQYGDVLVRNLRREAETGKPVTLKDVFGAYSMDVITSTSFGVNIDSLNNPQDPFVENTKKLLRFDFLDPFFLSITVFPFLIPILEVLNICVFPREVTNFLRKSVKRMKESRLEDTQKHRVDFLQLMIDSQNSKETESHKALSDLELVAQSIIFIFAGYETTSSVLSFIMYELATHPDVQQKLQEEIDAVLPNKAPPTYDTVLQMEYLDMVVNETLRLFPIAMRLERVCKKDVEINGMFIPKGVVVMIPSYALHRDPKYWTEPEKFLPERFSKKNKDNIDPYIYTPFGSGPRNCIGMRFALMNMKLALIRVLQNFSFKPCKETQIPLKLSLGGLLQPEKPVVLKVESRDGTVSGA
Paired box protein Pax-8, sequence (Q06710 whole entry): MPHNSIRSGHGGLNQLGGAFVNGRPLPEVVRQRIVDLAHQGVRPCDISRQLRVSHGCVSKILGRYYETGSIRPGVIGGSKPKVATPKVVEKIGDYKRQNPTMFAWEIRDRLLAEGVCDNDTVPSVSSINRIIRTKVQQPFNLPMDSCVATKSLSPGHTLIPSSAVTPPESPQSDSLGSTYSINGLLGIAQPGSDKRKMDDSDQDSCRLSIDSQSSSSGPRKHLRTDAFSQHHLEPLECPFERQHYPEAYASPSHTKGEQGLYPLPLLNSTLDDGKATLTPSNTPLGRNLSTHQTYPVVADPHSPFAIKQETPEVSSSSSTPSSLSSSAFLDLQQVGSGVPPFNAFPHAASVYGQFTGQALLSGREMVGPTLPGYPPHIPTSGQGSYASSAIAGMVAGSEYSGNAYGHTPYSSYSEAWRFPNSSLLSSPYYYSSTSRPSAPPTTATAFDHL
Cytochrome P450 2C9, sequence (P11712 whole entry): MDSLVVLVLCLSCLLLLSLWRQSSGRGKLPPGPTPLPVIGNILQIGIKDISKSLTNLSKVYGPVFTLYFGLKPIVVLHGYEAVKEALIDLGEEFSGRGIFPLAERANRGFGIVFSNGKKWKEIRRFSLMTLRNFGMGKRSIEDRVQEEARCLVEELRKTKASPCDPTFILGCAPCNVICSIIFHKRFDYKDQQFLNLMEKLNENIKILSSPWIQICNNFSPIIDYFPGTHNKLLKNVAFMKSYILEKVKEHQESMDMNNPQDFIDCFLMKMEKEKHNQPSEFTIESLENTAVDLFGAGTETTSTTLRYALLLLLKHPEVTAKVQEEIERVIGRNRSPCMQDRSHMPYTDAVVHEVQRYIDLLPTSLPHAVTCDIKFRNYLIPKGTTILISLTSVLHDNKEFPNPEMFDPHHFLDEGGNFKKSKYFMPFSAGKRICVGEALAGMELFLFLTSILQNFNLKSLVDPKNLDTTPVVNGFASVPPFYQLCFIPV

## O=C(Nc1cccc(-c2csc(Nc3ccccc3)n2)c1)c1ccccc1
[1]
  AC50: 2.96 µM (active)
[2]
  IC50: > 100 µM (inactive)

## COC(=O)[C@@]1(Cc2ccccc2)[C@H]2c3cc(C(=O)N4CCCC4)n(Cc4ccc(OC)c(OC)c4)c3C[C@H]2CN1C(=O)c1ccccc1
[3]
  AC50: 31.6 µM (inconclusive)

## COc1ccccc1NC(=O)CSc1nnc(-c2ccncc2)o1
[2]
  IC50: > 100 µM (inactive)

## Cn1c(S)nnc1Cc1c[nH]c2ccccc12
[2]
  IC50: > 100 µM (inactive)

## CCCC12CN3CC(C)(CN(C1)C3c1ccc3c(c1)OCO3)C2=O (stereo not drawn)
[4]
  EC50: > 260 µM (inactive)

## CCN(CC)S(=O)(=O)c1cc([N+](=O)[O-])ccc1NNC(=O)Nc1ccccc1OC
[4]
  EC50: > 260 µM (inactive)

## Cc1ccc(NN/C=C2\C(=O)NC(=O)N(c3ccccc3)C2=O)cc1
[1]
  AC50: 2.35 µM (active)

## Cc1ccc(F)c(C2C3C=CCC(c4cccc(-c5ccc(N(C)C)cc5)c4)C3C(=O)N2Cc2ccccc2)c1 (stereo not drawn)
[2]
  IC50: > 100 µM (inactive)

## CC(NC(=O)c1cc(COc2ccccc2)on1)c1nccs1 (stereo not drawn)
[2]
  IC50: > 100 µM (inactive)

## O=S(=O)(NC1CCCCC1N1CCN(c2ccccc2F)CC1)c1ccccc1 (stereo not drawn)
[5]
  AC50: 23.1 µM (active)

## NCCSc1nc2ccccc2s1
[3]
  AC50: 3.98 µM (inconclusive)

## CC1(C)CC(=O)C(C2C3=C(CC(C)(C)CC3=O)OC3=C2C(=O)CC(C)(C)C3)=C(O)C1
[4]
  EC50: > 260 µM (inactive)

## COC(=O)C1=C(c2ccc(F)cc2OCc2ccccc2)C[C@@H]2CC[C@H]1N2C(=O)NCc1ccc2[nH]ccc2c1
[5]
  AC50: 18.2 µM (active)

## c1ccc(N2OCC3Cn4c(nc5ccccc54)C32)cc1 (stereo not drawn)
[6]
  EC50: 30.3 µM (active)
[7]
  EC50: 8.69 µM (active)
[8]
  EC50: 44.2 µM (active)

## C=CCSc1n[nH]c(-c2ccccc2)n1
[6]
  EC50: 9.22 µM (active)
[7]
  EC50: 8.06 µM (active)
[8]
  EC50: 75.3 µM (active)

## O=C1CN(c2nc(-c3cccs3)nc3sc4c(c23)CCCC4)CCN1
[9]
  CC50: > 50 µM (active)
[6]
  EC50: 9.49 µM (active)
[7]
  EC50: 15.2 µM (active)
[8]
  EC50: 21 µM (active)

## Cc1cc(NC(=O)COc2cccc(Oc3ccccc3)c2)no1
[6]
  EC50: > 120 µM (not active)
[7]
  EC50: > 120 µM (not active)
[8]
  EC50: > 120 µM (not active)

## CCOc1ccc(C(=O)NC(=S)N(Cc2ccccc2)Cc2ccccc2)cc1
[10]
  EC50: 2.46 µM (active)
[11]
  EC50: > 150 µM (not active)
[12]
  EC50: 7.11 µM (active)
[3]
  AC50: 6.31 µM (inconclusive)

## O=C(/C=C\Nc1ccc(Br)cc1)c1cccnc1
[2]
  IC50: 71.4 µM (inactive)

## Oc1c2c(nc3cc(-c4cccc(F)c4)nn13)CCC2
[4]
  EC50: > 260 µM (inactive)

## CN(Cc1ccco1)c1ncnc2ccc(-c3cccc(C#N)c3)cc12
[3]
  AC50: 25.1 µM (inconclusive)
[13]
  AC50: 31.6 µM (inconclusive)
[14]
  AC50: 1.58 µM (inconclusive)

## COc1cccc(C(=O)N(Cc2ccccc2)Cc2cc3cc4c(cc3nc2O)OCCO4)c1
[3]
  AC50: 0.224 µM (inconclusive)

## CN(C)c1nc(N)nc(CSc2nnnn2-c2ccc(F)cc2)n1
[4]
  EC50: > 260 µM (inactive)

## O=C1c2ccccc2CCc2ccc(Br)cc21
[2]
  IC50: 35.6 µM (active)

## FC(F)(F)c1ccc(-c2noc(CN3CCCN(C4CCCCC4)CC3)n2)cc1
[1]
  AC50: 1.79 µM (active)

## O=S(=O)(Nc1ccc2c(c1)OCCO2)c1cccs1
[6]
  EC50: 14.8 µM (active)
[7]
  EC50: 10.9 µM (active)
[8]
  EC50: 10.8 µM (active)
[15]
  EC50: 2.91 µM (active)

## Cc1ccc(-c2noc(CCC(=O)Nc3cc(C)ccn3)n2)cc1
[4]
  EC50: > 260 µM (inactive)

## Oc1ccc(C2C(c3ccccc3)=NN=C(c3ccccc3F)N2O)c(O)c1 (stereo not drawn)
[6]
  EC50: 95.8 µM (active)
[7]
  EC50: 72.3 µM (active)
[8]
  EC50: > 120 µM (not active)

## O=C(Nc1nc(-c2cccc3ccccc23)cs1)c1ccc2c(c1)S(=O)(=O)c1ccccc1C2=O
[1]
  AC50: 3.99 µM (active)

## COc1ccc(NC(=O)CSc2n[nH]c(N)n2)cc1OC
[6]
  EC50: > 120 µM (not active)
[7]
  EC50: > 120 µM (not active)
[8]
  EC50: > 120 µM (not active)

## COc1cc(C2C3=C(COC3=O)Oc3cc4c(cc32)OCO4)cc(OC)c1O (stereo not drawn)
[5]
  AC50: 1.74 µM (active)

## COC(=O)c1ccc(CC2(C)C(=O)Nc3ccc(-c4cccc(C(F)(F)F)c4)cc32)o1 (stereo not drawn)
[2]
  IC50: 79.3 µM (inactive)

## C/C(=C\C(=O)c1ccc(Br)cc1)NCc1ccccc1
[6]
  EC50: > 120 µM (not active)
[7]
  EC50: 9.58 µM (active)
[8]
  EC50: 90.3 µM (active)

## C/C(=N\NC(=O)c1ccoc1C)c1cccc2ccccc12
[4]
  EC50: > 260 µM (inactive)

## CC1(C(=O)NS(=O)(=O)c2cccs2)CCN1C(=O)Cc1ccc(-c2ccccc2)cc1 (stereo not drawn)
[2]
  IC50: > 100 µM (inactive)

## COc1cc(OC)c(OC)cc1/C=N\CC1(c2ccccc2)CCCC1
[3]
  AC50: 28.2 µM (inconclusive)
[13]
  AC50: 25.1 µM (inconclusive)

## COc1ccccc1CNCCCCCCNCCCCCCCCNCCCCCCNCc1ccccc1OC [METHOCTRAMINE]
[3]
  AC50: 31.6 µM (inconclusive)
[13]
  AC50: 10 µM (inconclusive)

Reference: ChEMBL document CHEMBL1201862, “PubChem BioAssay data set” (2004)
